Reference: US20040006070A1, “Intraspinal continuous infusion of midazolam hydrochloride for the treatment of pain” (priority 2002, published 2004)
Where a name gives a salt, the structure may show the parent alone.

What was measured:
[1] = rat, single or multiple intrathecal bolus doses for 20 days; cited from earlier work
[2] = Toxicity of continuous intrathecal infusion in acute pain sheep: clinical symptoms, necropsy, histology; format: in vivo
Description: The inventors have completed a toxicity and efficacy study of intrathecal midazolam hydrochloride in 15 sheep instrumented with Medtronic SynchroMed® infusion systems. The surgical procedure and the hardware used in these animals was analogous to that utilized in humans. The first sheep was tested for toxicity only (3 mg/day), and all subsequent animals tested for both toxicity and analgesic activity.
Open-label (known dose) trial: A trial with known midazolam doses was performed in the first 7 sheep. Animals were administered 3 mg/day (N=1), 5 mg/day (N=1), 10 mg/day (N=1), and 15 mg/day (N=4) for 43 days. These doses were chosen based upon previous intrathecal bolus dose studies in rats and humans, with conversion of from species to species based on cerebral spinal fluid (CSF) production rate and total CSF volume. Analgesic activity was assessed using a mechanical stimulus device which produces a stimulus of acute pain by application of force via a blunt needle applied to the shaved front foreleg of the animal. Force is applied with increasing pressure until the animal lifts its leg in response to the painful stimulus. To evaluate the analgesic effect of midazolam, response latencies were expressed as a percentage of the maximum possible effect, % MPE. The response latency is defined as follows: [formula]
On day 43 after venous blood samples were taken, animals were euthanized (Beuthanasia 1 ml/4.5 kg IV bolus injection). CSF samples were obtained for analysis (1-2 ml drawn from L-7/S-1 after a laminectomy was performed to expose the dura) of glucose, total protein, and cell differential.

[3] = double blinded sheep Chicken Hawk #87, 5 mg/day, 43 days
[4] = double blinded sheep Elmer Fudd #437, 5 mg/day, 43 days
[5] = double blinded sheep Leghorn II #815, 15 mg/day, 43 days
[6] = double blinded sheep Petunia #439, 15 mg/day, 43 days
[7] = double blinded sheep Porky #402, 5 mg/day, 43 days
[8] = double blinded sheep Roadrunner #84, 15 mg/day, 43 days
[9] = open label sheep Dot #85, 15 mg/day, 43 days
[10] = open label sheep Wacko #83, 15 mg/day, 43 days
[11] = open label sheep Yacko #91, 15 mg/day, 43 days

Q: Which neurotoxicity [1] does the source give for `Cc1ncc2n1-c1ccc(Cl)cc1C(c1ccccc1F)=NC2` [Midazolam, midazolam hydrochloride] here?
A: neurotoxicity

Q: And the inflammatory lesions ([2]; any sheep receiving midazolam alone in the acute pain sheep study)?
A: no significant inflammatory lesions were observed

Q: What about the “behavioral, toxicological, or histopathologic changes related to the infusion” value ([2]; closed label sheep, continuous infusion 5 or 15 mg/day) of the same compound?
A: did not produce any behavioral, toxicological, or histopathologic changes

Q: What about the Histology [2, 3] of the same compound?
A: mild catheter reaction

Q: What about the Necropsy [2, 3] of the same compound?
A: no gross lesions noted

Q: What about the Histology [2, 4] of the same compound?
A: mild catheter reaction

Q: And the Necropsy [2, 4]?
A: no gross lesions noted

Q: What about the Histology [2, 5] of the same compound?
A: mild catheter reaction

Q: And the Necropsy [2, 5]?
A: No obvious lesions where detected

Q: What about the Histology [2, 6] of the same compound?
A: mild catheter reaction

Q: What about the Necropsy [2, 6] of the same compound?
A: no gross lesions noted

Q: What about the Histology [2, 7] of the same compound?
A: mild catheter reaction

Q: And the Necropsy [2, 7]?
A: no gross lesions noted

Q: And the Histology [2, 8]?
A: mild catheter reaction

Q: And the Necropsy [2, 8]?
A: no gross lesions noted

Q: What about the clinical symptoms ([2]; open label sheep #457 Tazz, 15 mg/day, 43 days) of the same compound?
A: No clinical symptoms

Q: What about the clinical symptoms ([2]; open label sheep #498 Toad, 10 mg/day, 43 days) of the same compound?
A: No clinical symptoms

Q: And the clinical symptoms ([2]; open label sheep #518 Sandy, 5 mg/day, 43 days)?
A: No clinical symptoms

Q: What about the Histology [2, 9] of the same compound?
A: mild catheter reaction

Q: What about the Necropsy [2, 9] of the same compound?
A: no gross lesions noted

Q: And the Histology [2, 10]?
A: mild catheter reaction

Q: And the Necropsy [2, 10]?
A: no gross lesions noted

Q: What about the Histology [2, 11] of the same compound?
A: mild catheter reaction

Q: And the Necropsy [2, 11]?
A: no gross lesions noted

Q: And the “behavioral, toxicological, or histopathologic changes related to the infusion” value ([2]; open label sheep, continuous infusion 3-15 mg/day, 43 days)?
A: did not produce any behavioral, toxicological, or histopathologic changes
